Each structure is given as a SMILES string.

Consider one compound from patent US20220331445A1, “HIGH DENSITY LIPOPROTEIN-LIKE NANOPARTICLES AS INDUCERS OF FERROPTOSIS IN CANCER” (Northwestern University, priority 2019, published 2022).

Assay [1] deals with OVCAR5 cell line. The assay can be described thus: MTS cell death / rescue assay in OVCAR5 cells. Type of assay: cell-based. The conditions noted are these: OVCAR5 cells with HDL NPs.
Assay [2] deals with SUDHL4 cells. The assay can be described thus: Cell death (MTS) assay in SUDHL4 cells. Type of assay: cell-based, human. Particulars: SUDHL4 cells cultured with HDL NPs; inhibitor added at 1 μM. Here is the method: (§1) MTS assays (CellTiter; Promega) were conducted as described previously. For the Ramos, SUDHL4, Raji, Daudi, Namalwa, SUDHL6 and Jurkat cells were plated at a density of 2×10^5 cells/mL, and cultured for 72 hours prior to assay. SUDHL1, SR-786, and U937 cells were plated at a density of 5×10^4 cells/mL and cultured for 5 days prior to MTS assay. The SCARB1 blocking and isotype control antibodies were added at a dilution of 1:1000 to 1:250. Ferrostatin-1 and deferoxamine (DFO) were obtained from Sigma Aldrich, and added at a final concentration of 1 μM. MTS values were standardized to PBS control.

The subject of assay [3] is 786-O (renal cell carcinoma-clear cell) cells. Description: MTS cell death / rescue assay in 786-O cells. Type of assay: cell-based. Particulars: 786-O cells with HDL NPs.
For assay [4], the system named is Ramos cells. Description: Cell death (MTS) assay in Ramos cells. The conditions noted are these: Ramos cells cultured with HDL NPs; inhibitor added at 1 μM. Type of assay: cell-based, human. The procedure: as §1
The subject of assay [5] is OVCAR5 CP Resistant Cell Line. Description: MTS cell death / rescue assay in OVCAR5 CP Resistant cells. Type of assay: cell-based. The conditions noted are these: OVCAR5 CP Resistant cells with HDL NPs.
Assay [6] concerns 769-P, a clear cell renal carcinoma cell line. Description: MTS cell death / rescue assay in 769-P cells. Type of assay: cell-based. Particulars: 769-P cells with HDL NPs.

As to `CCOC(=O)c1ccc(NC2CCCCC2)c(N)c1` [ferrostatin-1], the “effect on cell death induced by HDL NPs (MTS)” value in assay [1], in assay [5] and in assay [6] was “rescued” throughout. Moreover, the “effect on HDL NP induced cell death” value in assay [2] and in assay [4] was “significantly inhibited” throughout. The “effect on cell death induced by HDL NPs (MTS Rescue Assay)” value was “rescued” in assay [3] and “dramatic effects” in assay [3] (listed as Ferrostatin-1).
